46 substances from patent US20230263822A1, “MODULATION OF FACTOR 11 EXPRESSION” (Ionis Pharmaceuticals, Inc., priority 2008, published 2023) can be followed below.

This data set concerns human Factor 11 mRNA. The data set is described as follows: Antisense inhibition of human Factor 11 in HepG2 cells, lipofectin, 75 nM (Example 1). To be noted: 75 nM antisense oligonucleotide, ~24 h, relative to untreated control cells. Type of data set: cell-based. The essentials: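 HepG2 cells transfected via lipofectin with 75 nM antisense oligonucleotide (5-10-5 MOE gapmers, 20-mers, phosphorothioate, 5-methylcytidines), treated ~24 h. Factor 11 mRNA quantified by real-time PCR, normalised to RIBOGREEN total RNA; percent inhibition versus untreated cells.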

Setting [1] is: gapmers targeted to SEQ ID NO: 1.
[2] abbreviates: gapmers targeted to SEQ ID NO: 2.

Strand notation (5' to 3'): a small letter for the sugar, then the base; units joined by * are phosphorothioate-linked, units joined directly phosphodiester-linked; [ ] holds rarer units or linkages, { } end groups; capitals alone tell only the bases. e = 2'-O-(2-methoxyethyl) (MOE); [5mC] = 5-methylcytosine; d = 2'-deoxy (DNA)

The term % inhibition denotes the share of the control response that was lost under treatment. The low end stands for a response near the control, the high end for a response far below the control.

With “413492 (antisense eA*eG*eA*e[5mC]*eA*d[5mC]*dG*d[5mC]*dA*dA*dA*dA*dT*d[5mC]*dT*eT*eA*eG*eG*eT) [compound 413492]”, under setting [1], the “% inhibition” value stood at 68%.
For the substance “413493 (antisense eT*eT*eT*e[5mC]*eT*dT*dG*dA*dA*d[5mC]*d[5mC]*d[5mC]*d[5mC]*dA*dA*eA*eG*eA*eA*eA) [compound 413493]”, the “% inhibition” value under setting [1] is on record as 65%.
In the case of “413494 (antisense eG*eT*eG*eG*eT*dT*dT*d[5mC]*d[5mC]*dA*dG*dT*dT*dT*d[5mC]*eA*eA*e[5mC]*eA*eA) [compound 413494]”, the “% inhibition” value under setting [1] is 70%.
In the case of “413495 (antisense eT*eT*eG*eG*e[5mC]*dT*dT*dT*d[5mC]*dT*dG*dG*dA*dG*dA*eG*eT*eA*eT*eT) [compound 413495]”, the “% inhibition” value under setting [1] stood at 58%.
As for “413496 (antisense eG*eG*e[5mC]*eA*e[5mC]*dA*dG*dA*dT*d[5mC]*dA*dT*d[5mC]*dT*dT*eA*eT*eG*eG*eG) [compound 413496]”, the “% inhibition” value under setting [1] was 72%.
On to “413497 (antisense eG*eA*eT*eT*e[5mC]*d[5mC]*dT*dG*d[5mC]*dA*dA*dA*dA*dT*dG*eG*eT*eG*eA*eA) [compound 413497]”, for which the “% inhibition” value under setting [1] is on record as 39%.
Regarding “413498 (antisense eG*e[5mC]*eA*eG*eA*dG*dT*dG*dT*dA*dG*dA*dT*dT*d[5mC]*e[5mC]*eT*eG*e[5mC]*eA) [compound 413498]”, the “% inhibition” value under setting [1] was 60%.
Consider “413499 (antisense eA*eT*e[5mC]*eA*eT*dT*dT*dT*dT*d[5mC]*dA*dG*dG*dA*dA*eA*eG*eT*eG*eT) [compound 413499]”, for which the “% inhibition” value under setting [1] was 52%.
Consider “413500 (antisense eG*eT*eG*eA*eG*dA*d[5mC]*dA*dA*dA*dT*d[5mC]*dA*dA*dG*eA*e[5mC]*eT*eT*e[5mC]) [compound 413500]”, for which the “% inhibition” value under setting [2] worked out at 15%.
The same measure, in the same setting: then “413501 (antisense eT*eT*eA*eG*eT*dT*dT*dA*d[5mC]*dT*dG*dA*d[5mC]*dA*d[5mC]*eT*eA*eA*eG*eA) [compound 413501]”, with 23%; and “413502 (antisense e[5mC]*eT*eG*e[5mC]*eT*dT*dT*dA*dT*dG*dA*dA*dA*dA*dA*e[5mC]*e[5mC]*eA*eA*e[5mC]) [compound 413502]”, with 22%; and “413503 (antisense eA*eT*eA*e[5mC]*e[5mC]*dT*dA*dG*dT*dA*d[5mC]*dA*dA*dT*dG*eT*eA*eA*eA*eT) [compound 413503]”, with 29%.
For the substance “413504 (antisense eG*eG*e[5mC]*eT*eT*dG*dT*dG*dT*dG*dT*dG*dG*dT*d[5mC]*eA*eA*eT*eA*eT) [compound 413504]”, the “% inhibition” value under setting [2] is recorded as 54%.
On to “413505 (antisense eT*eG*eG*eG*eA*dA*dA*dG*d[5mC]*dT*dT*dT*d[5mC]*dA*dA*eT*eA*eT*eT*e[5mC]) [compound 413505]”, for which, under setting [2], the “% inhibition” value is 57%.
As for “413506 (antisense eA*eT*eG*eG*eA*dA*dT*dT*dG*dT*dG*d[5mC]*dT*dT*dA*eT*eG*eA*eG*eT) [compound 413506]”, the “% inhibition” value under setting [2] was 57%.
As for “413507 (antisense eT*eT*eT*e[5mC]*eA*dA*dG*d[5mC]*dT*d[5mC]*dA*dG*dG*dA*dT*eG*eG*eG*eA*eA) [compound 413507]”, the “% inhibition” value under setting [2] was 55%.
Turning to “413508 (antisense eG*eT*eT*eG*eG*dT*dA*dA*dA*dA*dT*dG*d[5mC]*dA*dA*e[5mC]*e[5mC]*eA*eA*eA) [compound 413508]”, the “% inhibition” value under setting [2] is 64%.
Take “413509 (antisense eT*e[5mC]*eA*eG*eG*dA*d[5mC]*dA*d[5mC]*dA*dA*dG*dT*dA*dA*eA*e[5mC]*e[5mC]*eT*eG) [compound 413509]”: the “% inhibition” value under setting [2] is recorded as 66%.
Consider “413510 (antisense eT*eG*e[5mC]*eA*eA*dG*d[5mC]*dT*dG*dG*dA*dA*dA*dT*dA*eA*eA*eA*eG*e[5mC]) [compound 413510]”, for which the “% inhibition” value under setting [2] was determined as 17%.
On to “413511 (antisense eT*eG*e[5mC]*e[5mC]*eA*dA*dT*dT*dT*dA*dA*dA*dA*dG*dT*eG*eT*eA*eG*e[5mC]) [compound 413511]”, for which the “% inhibition” value under setting [2] is 43%.
For “413512 (antisense eA*eT*eA*eT*eT*dT*d[5mC]*dA*dA*dA*dA*dT*d[5mC]*d[5mC]*dA*eG*eT*eA*eT*eG) [compound 413512]”, under setting [2], the “% inhibition” value was 39%.
Take “413513 (antisense eT*eT*e[5mC]*eT*eG*dA*dA*dT*dA*dT*dA*d[5mC]*dA*dA*dA*eT*eT*eA*eA*eT) [compound 413513]”: the “% inhibition” value under setting [2] turned out to be 27%.
Regarding “413514 (antisense eT*eT*eT*eA*e[5mC]*dT*dA*dT*dG*dA*dA*dA*dA*dT*d[5mC]*eT*eA*eA*eA*eT) [compound 413514]”, the “% inhibition” value under setting [2] amounted to 5%.
On the same count and under the same terms, then “413515 (antisense eG*eG*eT*eA*eT*d[5mC]*d[5mC]*dT*dG*dA*dG*dT*dG*dA*dG*eA*eT*e[5mC]*eT*eA) [compound 413515]”, with 36%; and “413516 (antisense e[5mC]*e[5mC]*eA*eG*e[5mC]*dT*dA*dT*d[5mC]*dA*dG*dG*dA*dA*dA*eA*eT*eT*e[5mC]*e[5mC]) [compound 413516]”, with 50%; and “413517 (antisense eA*eA*eA*eG*e[5mC]*dT*dA*dT*dT*dG*dG*dA*dG*dA*d[5mC]*eT*e[5mC]*eA*eG*eA) [compound 413517]”, with 51%.
With “413518 (antisense eA*eT*eG*eG*eA*dA*dT*d[5mC]*dT*d[5mC]*dT*dT*d[5mC]*dA*dT*eT*eT*e[5mC]*eA*eT) [compound 413518]”, the “% inhibition” value under setting [2] was determined as 49%.
For the substance “413519 (antisense eA*eT*eG*eG*eA*dG*dA*d[5mC]*dA*dT*dT*d[5mC]*dA*dT*dT*eT*e[5mC]*e[5mC]*eA*e[5mC]) [compound 413519]”, the “% inhibition” value under setting [2] stood at 59%.
“413520 (antisense eG*e[5mC]*eT*e[5mC]*eT*dG*dA*dG*dA*dG*dT*dT*d[5mC]*d[5mC]*dA*eA*eT*eT*e[5mC]*eA) [compound 413520]”: under setting [2], the “% inhibition” value amounted to 52%.
Take “413521 (antisense e[5mC]*eT*eG*eG*eG*dA*dA*dG*dG*dT*dG*dA*dA*dT*dT*eT*eT*eT*eA*eG) [compound 413521]”: the “% inhibition” value under setting [2] was determined as 62%.
With “413522 (antisense eT*e[5mC]*eA*eA*eG*dA*dG*dT*d[5mC]*dT*dT*d[5mC]*dA*dT*dG*e[5mC]*eT*eA*e[5mC]*e[5mC]) [compound 413522]”, the “% inhibition” value under setting [2] was found to be 42%.
As for “413523 (antisense eT*e[5mC]*eA*eG*eT*dT*dT*dA*d[5mC]*d[5mC]*dT*dG*dG*dG*dA*eT*eG*e[5mC]*eT*eG) [compound 413523]”, under setting [2], the “% inhibition” value is 61%.
“413524 (antisense eG*eA*e[5mC]*eA*eT*dT*dA*dT*dA*d[5mC]*dT*d[5mC]*dA*d[5mC]*d[5mC]*eA*eT*eT*eA*eT) [compound 413524]”: the “% inhibition” value under setting [2] was found to be 7%.
With “413525 (antisense eG*eT*eA*eT*eA*dA*dA*dT*dG*dT*dG*dT*d[5mC]*dA*dA*eA*eT*eT*eA*eA) [compound 413525]”, the “% inhibition” value under setting [2] came to 43%.
As to “413526 (antisense eG*eT*eA*eA*eA*dG*dT*dT*dT*dT*dA*d[5mC]*d[5mC]*dT*dT*eA*eA*e[5mC]*e[5mC]*eT) [compound 413526]”, the “% inhibition” value under setting [2] is on record as 47%.
As for “413527 (antisense e[5mC]*e[5mC]*eA*eT*eA*dA*dT*dG*dA*dA*dG*dA*dA*dG*dG*eA*eA*eG*eG*eG) [compound 413527]”, the “% inhibition” value under setting [2] is on record as 52%.
Regarding “413528 (antisense eT*eT*eA*eA*eG*dT*dT*dA*d[5mC]*dA*dT*dT*dG*dT*dA*eG*eA*e[5mC]*e[5mC]*eA) [compound 413528]”, the “% inhibition” value under setting [2] was determined as 48%.
For “413529 (antisense eT*eG*eT*eG*eT*dG*dG*dG*dT*d[5mC]*d[5mC]*dT*dG*dA*dA*eA*eT*eT*e[5mC]*eT) [compound 413529]”, under setting [2], the “% inhibition” value worked out at 52%.
On the same count and under the same terms, then “413530 (antisense eA*eT*e[5mC]*eT*eT*dG*dT*dA*dA*dT*dT*dA*d[5mC]*dA*d[5mC]*eA*e[5mC]*e[5mC]*e[5mC]*e[5mC]) [compound 413530]”, with 27%.
Same read-out and setting: then “413531 (antisense eG*eT*eA*e[5mC]*eA*d[5mC]*dT*d[5mC]*dT*dG*d[5mC]*dA*dA*d[5mC]*dA*eG*eA*eA*eG*e[5mC]) [compound 413531]”, with 47%.
The same measure, in the same setting: then “413532 (antisense eA*eG*eG*eG*eA*dA*dT*dA*dA*d[5mC]*dA*dT*dG*dA*dA*eG*eG*e[5mC]*e[5mC]*e[5mC]) [compound 413532]”, with 32%; and “413533 (antisense eA*eT*e[5mC]*e[5mC]*eA*dG*dT*dT*d[5mC]*dA*d[5mC]*d[5mC]*dA*dT*dT*eG*eG*eA*eG*eA) [compound 413533]”, with 48%.
For “413534 (antisense eT*eT*eT*eT*e[5mC]*d[5mC]*dA*dG*dA*dA*dG*dA*dG*dA*d[5mC]*eT*e[5mC]*eT*eT*e[5mC]) [compound 413534]”, under setting [2], the “% inhibition” value was 31%.
On to “413535 (antisense eG*eT*e[5mC]*eA*e[5mC]*dA*dT*dT*dT*dA*dA*dA*dA*dT*dT*eT*e[5mC]*e[5mC]*eA*eA) [compound 413535]”, for which the “% inhibition” value under setting [2] was 41%.
On the same count and under the same terms, then “413536 (antisense eT*eT*eA*eA*eT*dA*dT*dA*d[5mC]*dT*dG*d[5mC]*dA*dG*dA*eG*eA*eA*e[5mC]*e[5mC]) [compound 413536]”, with 37%.
In the case of “413537 (antisense eA*eG*eA*eA*eA*dT*dA*dT*d[5mC]*d[5mC]*d[5mC]*d[5mC]*dA*dG*dA*e[5mC]*eA*eG*eA*eG) [compound 413537]”, the “% inhibition” value under setting [2] was found to be 16%.
